Columns and labels:
[1] = system: cumulus-oocyte complexes (cumulus expansion); assay: Cumulus expansion assay in vitro; assay type: cell-based, mice; conditions: in competition with PGE2
Protocol: Folliculogenesis was induced in immature female mice (strain: CD1 (ICR) from Charles River) at an age of 14-18 days by a single dose (intraperitoneal) of 10 I.U. of PMSG (Pregnant Mare Serum Gonadotropin; Sigma G-4877, lot 68H0909). 47-50 hours after the injection, the ovaries were removed and the cumulus-oocyte complexes were removed. The cumulus complex is not yet expanded at this stage.
The cumulus-oocyte complexes were then incubated with prostaglandin E2 (PGE2) (0.3 μM), vehicle control (ethanol) or test substances for 20-24 hours. Medium: alpha-MEM medium with 0.1 mM IBMX, pyruvates (0.23 mM) glutamines (2 mM), pen/strep 100 IU/ml pen. and 100 μg/ml strep. and HSA (8 mg/ml). Cumulus expansion was then established through the division into four stages (according to Vanderhyden et al. Dev Biol. 1990 August; 140(2):307-317).

[2] = target: T1, EP2 subtype of the human PGE2 receptor (Homo sapiens, UniProt P43116); assay: cellular cAMP agonism assay; assay type: cell-based; conditions: without PGE2
T1 construct: host or cells: cells in a cell culture plate
Protocol: The binding of PGE2 to the EP2 subtype of the human PGE2 receptor induces activation of membrane-associated adenylate cyclases and leads to the formation of cAMP. In the presence of the phosphodiesterase inhibitor IBMX, cAMP which has accumulated due to this stimulation and been released by cell lysis is employed in a competitive detection method. In this assay, the cAMP in the lysate competes with cAMP-XL665 for binding of an Eu cryptate-labelled anti-cAMP antibody.
The two signals are measured in a suitable measuring instrument with a time lag, i.e. after the background fluorescence has declined.
The substance solutions (0.75 μl) introduced into an into an assay plate and 30% DMSO were dissolved in 16 μl of a KRSB+IBMX stimulation solution (1× Krebs-Ringer Bicarbonate Buffer; Sigma-Aldrich # K-4002; including 750 μM 3-isobutyl-1-methylxanthine Sigma-Aldrich # I-7018), and then 15 μl thereof were transferred into a media-free cell culture plate which has been washed with KRSB shortly beforehand.
After incubation at room temperature (RT; volume: ˜15 μl) for 60 minutes, the reaction was then stopped by adding 5 μl of lysis buffer and incubated at RT for a further 20 min (volume: ˜20 μl). The cell lysate was then transferred into a measuring plate and measured in accordance with the manufacturer's instructions (cyclic AMP kit Cisbio International # 62AMPPEC).

T1 sequence (P43116 whole entry): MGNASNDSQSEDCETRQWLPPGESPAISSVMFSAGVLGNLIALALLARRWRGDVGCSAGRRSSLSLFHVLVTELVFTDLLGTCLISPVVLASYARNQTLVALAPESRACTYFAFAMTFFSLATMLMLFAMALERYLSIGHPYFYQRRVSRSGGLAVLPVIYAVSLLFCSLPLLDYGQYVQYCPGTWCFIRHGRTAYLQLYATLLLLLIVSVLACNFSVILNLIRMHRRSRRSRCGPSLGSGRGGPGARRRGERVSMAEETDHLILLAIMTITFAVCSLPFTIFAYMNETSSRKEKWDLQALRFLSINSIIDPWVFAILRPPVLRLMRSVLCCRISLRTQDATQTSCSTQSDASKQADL

SMILES: CC(C)Oc1ccc2c(=O)c3cc(C(=O)O)ccc3oc2c1 [AH 6809, reference compound]
- suppression of the expansion of the cumulus ([1]; 100-200 μM): approx. 30%

SMILES: Cc1[nH]c2c(F)ccc(C)c2c1CCNC(=O)c1cc2ccc(C(=O)NCC(N)=O)cc2[nH]1 [Example 6, 2-N-[2-(7-fluoro-2,4-dimethyl-1H-indol-3-yl)ethyl]-6-N-carbamoylmethyl-1H-indole-2,6-dicarboxamide]
- suppression of cumulus expansion ([1]; 5 μM): approx. 67%
- effect in the cellular agonism test [2]: no inhibition

Reference: patent US20100029599A1, “Indolylamides as modulators of the EP2 receptor” (BAYER SCHERING PHARMA AKTIENGESELLSCHAFT, priority 2008, published 2010)
